Tested on: liver-enriched genes (liver signatures)
Assay: Whole-genome transcriptome microarray on HLC treated with MB-1
Type: cell-based, human
Method: FIG. 1: Maturation screen identified a small molecule that enhances maturation of HLC. (A) HLC maturation screening cascade. […] Lane 1-3, MB-1 (5 μM) at 7 d, 24 h, and 2 h, respectively. Lane 4-6, MB-1 (0.5 μM) at 7 d, 24 h, and 2 h, respectively. (C) BioQC liver score analysis of HLC transcriptomes (following treatment with MB-1 for 2 h, 24 h, and 7 day) were compared to those of PHH, HepaRG, and HepG2. (D) Expression of AAT-1a in HLC after 14 day of treatment with MB-1, or 1% DMSO. (E) MB-1-treated HLC support robust HBV infection: HLC (in 96-well plate) were treated with MB-1 (1 μM), or 1% DMSO, for 4 days, then infected with patient-derived HBV (MOI 10, in triplicate). Culture medium was harvested at indicated time points and analyzed for HBsAg.
To fully manifest the potential of HLC as a disease-relevant assay for HBV drug discovery, they have to meet the following criteria: hepatocyte-likeness, scalability, assay robustness, and reproducibility. It is well known that HLC still display immature phenotypes i.e. resemble more fetal than adult, hepatocytes (Baxter et al., 2015; Godoy et al., 2015; Goldring et al., 2017). […]

**Q.** What does the source list for O=C(NCc1cccc(F)c1)c1cccc2[nH]c(-c3c(NC[C@@H](O)c4ccccc4)cc[nH]c3=O)nc12 [MB-1]?
**A.** number of liver-enriched genes (liver tissue signature) with up-regulated mRNA expression (Gini index >0.7): ~237; number of up-regulated genes that are highly expressed in the liver (Gini index >0.8): 137

Reference: patent US20230248723A1, “PYRROLO[2,3-B]PYRAZINE COMPOUNDS AS CCCDNA INHIBITORS FOR THE TREATMENT OF HEPATITIS B VIRUS (HBV) INFECTION” (Hoffmann-La Roche Inc., priority 2017, published 2023)
